Type in all cases: functional
A short description of experiment [1]: Antioxidant activity assessed as superoxide radical anion scavenging activity at 0.5 mg/ml by hypoxanthine NBT method.
A short description of experiment [2]: Antioxidant activity assessed as superoxide radical anion scavenging activity at 0.2 mg/ml by hypoxanthine NBT method.
Experiment [3] can be described thus: Antioxidant activity assessed as superoxide radical anion scavenging activity by hypoxanthine NBT method.

The source of these data is ChEMBL document CHEMBL1140528, “A novel flavonoid from Lespedeza virgata (Thunb.) DC.: structural elucidation and antioxidative activity” (Bioorg Med Chem Lett, 2007).

In brackets after ≈: the same amount, converted by molar mass. Activity calls are given as the source filed them. The rule behind the calls is not given here.

With `C[C@@H]1O[C@@H](Oc2c(-c3ccc(O)cc3)oc3cc(O)cc(O)c3c2=O)[C@H](O)[C@H](O)[C@H]1O`, the Activity in experiment [1] is 29.9%.

Regarding `O=c1c(O[C@@H]2O[C@H](CO)[C@@H](O)[C@H](O)[C@H]2O)c(-c2ccc(O)cc2)oc2cc(O)cc(O)c12`, in experiment [1], the Activity worked out at 51.7%.

As to `C[C@@H]1O[C@@H](Oc2c(-c3ccc(O)c(O)c3)oc3cc(O)cc(O)c3c2=O)[C@H](O)[C@H](O)[C@H]1O`, in experiment [1], the Activity came out at 88.9%. Same read-out and setting: as for `O=c1c(O)c(-c2ccc(O)c(O)c2)oc2cc(O[C@@H]3O[C@H](CO)[C@@H](O)[C@H](O)[C@H]3O)cc(O)c12`, the figure is 71.7%. One may read the IC50 as the point on the concentration scale where inhibition reaches its midpoint. Consider `COc1cc2c(cc1[C@@H]1CC(=O)c3c(O)c(C)c4c(c3O1)C=CC(C)(C)O4)C=CC(C)(C)O2`, for which the Activity in experiment [1] came out at 95.8%. Besides, the result in experiment [2] was Active. Moreover, the 50% inhibitory concentration (IC50) in experiment [3] came out at 140 µg/mL (≈ 312 µM). For `C[C@@H]1O[C@@H](Oc2cc(O)c3c(=O)c(O[C@@H]4O[C@@H](C)[C@H](O)[C@@H](O)[C@H]4O)c(-c4ccc(O)cc4)oc3c2)[C@H](O)[C@H](O)[C@H]1O`, the Activity in experiment [1] stood at 17.6%.
